Key:
APCΔ14 mice = assay: siRNA treatment of APCΔ14 mice (spontaneous intestinal tumorigenesis); format: in vivo, mouse
Method: (§1) APCΔ14 mice were housed in conventional conditions, and randomized in two groups. The first group (n=9), was treated once daily by intraperitoneal administration of 250 μg/kg siRNA against the murine GAST mRNA. Control mice (n=9) were treated with a similar dose of siRNA against Luciferase. (siRNA sequence on FIG. S7 online). […] Adenoma scoring in the intestine and colon was described in (Colnot et al., 2004). Samples of healthy intestinal mucosa, as well as intestinal and colon adenomas, were fixed in 4% PFA and paraffin-embedded, or frozen in liquid nitrogen, for Western blotting, IHC or RNA extraction. Plasma was prepared and assayed for IL-6 and TNFα using the FACSarray system (Becton Dickinson).

[1] = Plasma IL-6 and TNFα in siRNA-treated APCΔ14 mice; format: in vivo, mouse; details: two-week treatment, GAST siRNA versus Luc siRNA
Method: as §1

[2] = test system: Colo-26 murine CRC cells and Young adult mouse colon (YAMC) cells; assay: GAST mRNA after siRNA transfection of murine cells (RT-QPCR); format: cell-based; details: mouse cells (FIG. S1)

siRNA directed against the murine GAST gene: siRNA against the murine GAST mRNA; siRNAs mPG sense 5′-GAAGAGGCCUACGGAUGGTT-3′ (SEQ ID No 29), antisense SEQ ID No 30 (antisense CCAUCCGUAGGCCUCUUCTT; chemistry not given here)
ICAT expression in adenomas (APCΔ14 mice; APCΔ14 mice treated with siRNA): significantly increased | expression of Tcf-4 target genes in adenomas (APCΔ14 mice; APCΔ14 mice treated with siRNA): strong repression | number of cells staining for activated caspase 3 in adenomas (APCΔ14 mice; APCΔ14 mice treated with siRNA, immunohistochemistry): strongly elevated | Muc-2 and Alcian-blue positive cells in remaining small intestinal and colonic adenomas (APCΔ14 mice; APCΔ14 mice treated with siRNA, immunohistochemistry, compared to controls): greatly increased numbers | decrease in the total number of intestinal tumors (APCΔ14 mice; APCΔ14 mice, 250 μg/kg siRNA intraperitoneal once daily for two weeks, compared to Luciferase siRNA control animals): 20% | reduction in tumor size in the colon (APCΔ14 mice; APCΔ14 mice, daily siRNA for two weeks, colon, Fischer's exact test p=0.228): not reaching significance | GAST gene and progastrin expression in intestinal adenomas (APCΔ14 mice; APCΔ14 mice, daily siRNA for two weeks, compared to Luciferase-specific siRNA): reduction | tumor size in the intestine (APCΔ14 mice; APCΔ14 mice, daily siRNA for two weeks, compared to controls, Chi-square p<0.0001, n=9 per group): significant reduction | reduction in tumor size in the ileum (APCΔ14 mice; APCΔ14 mice, daily siRNA for two weeks, ileum): particularly marked | levels of plasma IL-6 and TNFα (proinflammatory response) [1]: No significant differences | down-regulation of GAST in mouse cells [2]: effective

From patent US20100209426A1, “INHIBITORS OF PROGASTRIN-INDUCED REPRESSION OF ICAT FOR TREATING AND/OR PREVENTING COLORECTAL CANCER, ADENOMATOUS POLYPOSIS OR METASTASIS DISPLAYING PROGASTRIN-SECRETING CELLS AND CELLS IN WHICH THE BETA-CATENIN/TCF-MEDIATED TRANSCRIPTIONAL PATHWAY IS CONSTITUTIVELY ACTIVE” (INSERM (INSTITUT NATIONAL DE LA SANTE ET DE LA REC HERCHE …, priority 2006, published 2010)
